These results are taken from patent US8563542B2 (Cyclacel Limited, priority 2007, dated 2013).

For one test, the target named is PLK1 (Homo sapiens, UniProt P53350). Description: PLK1 protein kinase assay (CDC25C phosphorylation, [γ-32P]-ATP). Type of test: biochemical. The following applies: Table 2, PLK1 IC50; class symbols; read-out: PLK1 IC50.
For the next test, the target named is T1, AA (Homo sapiens, UniProt O14965).
T1 sequence (O14965 1-403): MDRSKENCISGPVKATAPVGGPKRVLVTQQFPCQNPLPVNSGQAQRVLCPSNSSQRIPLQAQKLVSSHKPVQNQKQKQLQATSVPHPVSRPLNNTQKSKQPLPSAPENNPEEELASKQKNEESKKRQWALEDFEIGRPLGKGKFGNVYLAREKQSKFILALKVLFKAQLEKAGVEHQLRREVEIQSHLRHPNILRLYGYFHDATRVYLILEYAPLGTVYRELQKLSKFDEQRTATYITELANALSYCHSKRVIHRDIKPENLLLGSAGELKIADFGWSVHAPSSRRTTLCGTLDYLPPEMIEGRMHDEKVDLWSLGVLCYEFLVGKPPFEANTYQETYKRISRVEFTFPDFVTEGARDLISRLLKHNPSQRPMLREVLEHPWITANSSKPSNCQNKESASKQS
Description: AA IC50 (Table 1; no method given). Type of test: biochemical. The following applies: Table 2, AurA IC50; class symbols; read-out: AurA IC50.

Sequence of PLK1 (P53350 whole entry): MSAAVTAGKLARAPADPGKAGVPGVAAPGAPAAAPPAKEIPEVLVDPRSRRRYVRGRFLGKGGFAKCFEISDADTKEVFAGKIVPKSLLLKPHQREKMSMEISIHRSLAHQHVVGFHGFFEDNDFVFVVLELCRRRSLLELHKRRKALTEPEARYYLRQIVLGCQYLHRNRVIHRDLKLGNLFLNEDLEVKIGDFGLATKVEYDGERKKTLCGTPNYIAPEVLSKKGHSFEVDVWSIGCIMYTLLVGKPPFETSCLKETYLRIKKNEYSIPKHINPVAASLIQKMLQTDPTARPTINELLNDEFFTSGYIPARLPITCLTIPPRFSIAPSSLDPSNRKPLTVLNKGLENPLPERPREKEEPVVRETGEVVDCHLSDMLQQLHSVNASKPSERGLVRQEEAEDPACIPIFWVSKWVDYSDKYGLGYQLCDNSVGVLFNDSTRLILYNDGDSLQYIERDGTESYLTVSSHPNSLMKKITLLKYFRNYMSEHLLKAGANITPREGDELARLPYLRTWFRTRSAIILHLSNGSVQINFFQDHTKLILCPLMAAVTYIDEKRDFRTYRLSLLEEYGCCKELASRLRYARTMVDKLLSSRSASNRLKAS

`Cc1cccc(Nc2ncc3c(n2)N(C2CCCC2)CCC(=O)N3C)c1` [compound 137, 9-Cyclopentyl-5-methyl-2-m-tolylamino-5,7,8,9-tetrahydro-pyrimido[4,5-b][1,4]diazepin-6-one]: the IC50 was below 10000 nM at PLK1 and below 100 nM at AA.

As for `COc1cccc(Nc2ncc3c(n2)N(C2CCCC2)CCC(=O)N3C)c1` [compound 138, 9-Cyclopentyl-2-(3-methoxy-phenylamino)-5-methyl-5,7.8,9-tetrahydro-pyrimido[4,5-b][1,4]diazepin-6-one], the IC50 on PLK1 is below 10000 nM; on AA, below 1000 nM.

Turning to `CN1C(=O)CCN(C2CCCC2)c2nc(Nc3ccc4[nH]ncc4c3)ncc21` [compound 139, 9-Cyclopentyl-2-(1H-indazol-5-ylamino)-5-methyl-5,7,8,9-tetrahydro-pyrimido[4,5-b][1,4]diazepin-6-one], the IC50 at PLK1 was below 1000 nM; at AA it was below 100 nM.

Take `Cc1c(Nc2ncc3c(n2)N(C2CCCC2)CCC(=O)N3C)cccc1C(=O)NC1CCN(C)CC1` [compound 140, 3-(9-Cyclopentyl-5-methyl-6-oxo-6,7,8,9-tetrahydro-5H-pyrimido[4,5-b][1,4]diazepin-2-ylamino)-2-methyl-N-(1-methyl-piperidin-4-yl)-benzamide]: the IC50 at PLK1 and at AA was below 10000 nM in each case.

As to `CN1C(=O)CCN(C2CCCC2)c2nc(Nc3cccc(S(=O)(=O)N4CCNCC4)c3)ncc21` [compound 146], the IC50 at PLK1 and on AA was below 10000 nM in each case.

Take `COc1cc(C(=O)NCCCCO)ccc1Nc1ncc2c(n1)N(C1CCCC1)CCC(=O)N2C` [compound 151, 4-(9-Cyclopentyl-5-methyl-6-oxo-6,7,8,9-tetrahydro-5H-pyrimido[4,5-b][1,4]diazepin-2-ylamino)-N-(4-hydroxy-butyl)-3-methoxy-benzamide]: the IC50 is below 1000 nM at PLK1 and below 10000 nM on AA.

`CN1C(=O)CCN(C2CCCC2)c2nc(Nc3ccc(CCC(=O)O)cc3)ncc21` [compound 170, 3-[4-(9-Cyclopentyl-5-methyl-6-oxo-6,7,8,9-tetrahydro-5H-pyrimido[4,5-b][1,4]diazepin-2-ylamino)-phenyl]-propionic acid]: the IC50 was below 10000 nM on PLK1 and below 100 nM on AA.

On to `CC(=O)Nc1ccc(Nc2ncc3c(n2)N(C2CCCC2)CCC(=O)N3C)cc1` [compound 171, N-[4-(9-Cyclopentyl-5-methyl-6-oxo-6,7,8,9-tetrahydro-5H-pyrimido[4,5-b][1,4]diazepin-2-ylamino)-phenyl]-acetamide], for which the IC50 was below 10000 nM on PLK1 and below 100 nM on AA.

On to `CN1C(=O)CCN(C2CCCC2)c2nc(Nc3ccc(CC(=O)O)cc3)ncc21` [compound 172, [4-(9-Cyclopentyl-5-methyl-6-oxo-6,7,8,9-tetrahydro-5H-pyrimido[4,5-b][1,4]diazepin-2-ylamino)-phenyl]-acetic acid], for which the IC50 was below 10000 nM at PLK1 and below 100 nM at AA.

As for `CN1C(=O)CCN(C2CCCC2)c2nc(Nc3ccc4c(c3)CC(=O)N4)ncc21` [compound 173, 9-Cyclopentyl-5-methyl-2-(2-oxo-2,3-dihydro-1H-indo1-5-ylamino)-5,7,8,9-tetrahydro-pyrimido[4,5-b][1,4]diazepin-6-one], the IC50 was below 10000 nM on PLK1 and below 100 nM at AA.

With `Cc1cc(C(=O)O)ccc1Nc1ncc2c(n1)N(C1CCCC1)CCC(=O)N2C` [compound 174, 4-(9-Cyclopentyl-5-methyl-6-oxo-6,7,8,9-tetrahydro-5H-pyrimido[4,5-b][1,4]diazepin-2-ylamino)-3-methyl-benzoic acid], the IC50 at PLK1 was below 1000 nM; at AA, below 10000 nM.

As to `CN1C(=O)CCN(C2CCCC2)c2nc(Nc3ccc(C(=O)NC4CC4)cc3)ncc21` [compound 176, 4-(9-Cyclopentyl-5-methyl-6-oxo-6,7,8,9-tetrahydro-5H-pyrimido[4,5-b][1,4]diazepin-2-ylamino)-N-cyclopropyl-benzamide], the IC50 was below 1000 nM on PLK1 and below 100 nM on AA.

Take `CN1C(=O)CCN(C2CCCC2)c2nc(Nc3cccc(CN4CCS(=O)(=O)CC4)c3)ncc21` [compound 177, 9-Cyclopentyl-2-[3-(1,1-dioxo-thiomorpholin-4-ylmethyl)-phenylamino]-5-methyl-5,7,8,9-tetrahydro-pyrimido[4,5-b][1,4]diazepin-6-one]: the IC50 at PLK1 was below 1000 nM; at AA, below 100 nM.

Regarding `CN1C(=O)CCN(C2CCCC2)c2nc(Nc3ccc(NC(=O)C4CC4)cc3)ncc21` [compound 178, Cyclopropanecarboxylic acid [4-(9-cyclopentyl-5-methyl-6-oxo-6,7,8,9-tetrahydro-5H-pyrimido[4,5-b][1,4]diazepin-2-ylamino)-phenyl]-amide], the values for the IC50 at PLK1 and at AA were below 1000 nM and below 100 nM, respectively.

Regarding `Cc1cc(Nc2ncc3c(n2)N(C2CCCC2)CCC(=O)N3C)ccc1NC(=O)C1CC1` [compound 179, Cyclopropanecarboxylic acid [4-(9-cyclopentyl-5-methyl-6-oxo-6,7,8,9-tetrahydro-5H-pyrimido[4,5-b][1,4]diazepin-2-ylamino)-2-methyl-phenyl]-amide], the values for the IC50 at PLK1 and on AA were below 10000 nM and below 100 nM, respectively.

For the molecule `CN1CCC(NC(=O)CCc2ccc(Nc3ncc4c(n3)N(C3CCCC3)CCC(=O)N4C)cc2)CC1` [compound 180, 3-[4-(9-Cyclopentyl-5-methyl-6-oxo-6,7,8,9-tetrahydro-5H-pyrimido[4,5-b][1,4]diazepin-2-ylamino)-phenyl]-N-(1-methyl-piperidin-4-yl)-propionamide], the IC50 at PLK1 was below 10000 nM; at AA, below 100 nM.

Regarding `CN1CCC(NC(=O)Cc2ccc(Nc3ncc4c(n3)N(C3CCCC3)CCC(=O)N4C)cc2)CC1` [compound 181, 2-[4-(9-Cyclopentyl-5-methyl-6-oxo-6,7,8,9-tetrahydro-5H-pyrimido[4,5-b][1,4]diazepin-2-ylamino)-phenyl]-N-(1-methyl-piperidin-4-yl)-acetamide], the IC50 on PLK1 was below 10000 nM; at AA it was below 100 nM.

With `CCc1cc(C(=O)O)ccc1Nc1ncc2c(n1)N(C1CCCC1)CCC(=O)N2C` [compound 192, 4-(9-Cyclopentyl-5-methyl-6-oxo-6,7,8,9-tetrahydro-5H-pyrimido[4,5-b][1,4]diazepin-2-ylamino)-3-ethyl benzoic acid], the IC50 on PLK1 and at AA was below 10000 nM in each case.

For the molecule `CN1CCC(NC(=O)c2ccc(Nc3ncc4c(n3)N(C3CCCC3)CCC(=O)N4C)c(F)c2)CC1` [compound 215, 4-(9-Cyclopentyl-5-methyl-6-oxo-6,7,8,9-tetrahydro-5H-pyrimido[4,5-b][1,4]diazepin-2-ylamino)-3-fluoro-N-(1-methyl-piperidin-4-yl)-benzamide], the half-inhibitory concentration (IC50) at PLK1 is below 100 nM; at AA, below 10000 nM.

`CN1C(=O)C2(CC2)CN(C2CCCC2)c2nc(Nc3ccc4[nH]ncc4c3)ncc21` [compound 227, 9-Cyclopentyl-2-(1H-indazol-5-ylamino)-5-methyl-5,7,8,9-tetrahydro-pyrimido[4,5-b][1,4]diazepin-3,1′-cyclopropane-6-one]: the figures for the IC50 on PLK1 and on AA were below 100 nM and below 1000 nM, respectively.

Turning to `CC(=O)Nc1ccc(Nc2ncc3c(n2)N(C2CCCC2)CCC(=O)N3C)cc1C` [compound 285, N-[4-(9-Cyclopentyl-5-methyl-6-oxo-6,7,8,9-tetrahydro-5H-pyrimido[4,5-b][1,4]diazepin-2-ylamino)-2-methyl-phenyl]-acetamide], the IC50 on PLK1 is below 10000 nM; on AA, below 100 nM.

Take `Cc1cc(Nc2ncc3c(n2)N(C2CCCC2)CCC(=O)N3C)ccc1NC(=O)C(C)(C)C` [compound 287, N-[4-(9-Cyclopentyl-5-methyl-6-oxo-6,7,8,9-tetrahydro-5H-pyrimido[4,5-b][1,4]diazepin-2-ylamino)-2-methyl-phenyl]-2,2-dimethyl-propionamide]: the figures for the IC50 on PLK1 and at AA were below 10000 nM and below 100 nM, respectively.

In the case of `CN1C(=O)CCN(C2CCCC2)c2nc(Nc3ccc4c(c3)C=CS4(=O)=O)ncc21` [compound 289, 9-Cyclopentyl-2-(1,1-dioxo-1H-1lambda*6*- benzo[b]thiophen-5-ylamino)-5-methyl-5,7,8,9-tetrahydro-pyrimido[4,5-b][1,4]diazepin-6-one], the results for the IC50 on PLK1 and on AA were below 1000 nM and below 100 nM, respectively.

As to `Cc1ccc(N2CCC(=O)N(C)c3cnc(Nc4ccc5c(c4)CS(=O)(=O)C5)nc32)cc1` [compound 290, 2-(2,2-Dioxo-2,3-dihydro-1H-2lambda*6*- benzo[c]thiophen-5-ylamino)-5-methyl-9-p-tolyl-5,7,8,9-tetrahydro-pyrimido[4,5-b][1,4]diazepin-6-one], the figures for the IC50 at PLK1 and at AA were below 10000 nM and below 100 nM, respectively.

Take `Cc1ccc(N2CCC(=O)N(C)c3cnc(Nc4ccc(NC(=O)C5CC5)c(C)c4)nc32)cc1` [compound 291, Cyclopropanecarboxylic acid [2-methyl-4-(5-methyl-6-oxo-9-p-tolyl-6,7,8,9-tetrahydro-5H-pyrimido[4,5-b][1,4]diazepin-2-ylamino)-phenyl]-amide]: the IC50 on PLK1 is below 10000 nM; on AA, below 100 nM.

Take `CN1C(=O)CCN(C2CCCC2)c2nc(Nc3ccc4sc(C(=O)O)cc4c3)ncc21` [compound 292, 5-(9-Cyclopentyl-5-methyl-6-oxo-6,7,8,9-tetrahydro-5H-pyrimido[4,5-b][1,4]diazepin-2-ylamino)-benzo[b]thiophene-2-carboxylic acid]: the results for the IC50 on PLK1 and at AA were below 1000 nM and below 100 nM, respectively.
